Assay results published in article PMC4879371, “Antitrypanosomal Activities and Mechanisms of Action of Novel Tetracyclic Iridoids from Morinda lucida Benth” (Antimicrobial Agents and Chemotherapy, 2016).

System: GUTat 3.1 strain of the bloodstream form of T. brucei brucei
Test: alamarBlue in vitro viability test for trypanosome parasites
Assay type: cell-based
Settings: Trypanosoma brucei, 48 h of incubation, read-out: IC50, antitrypanosomal activity
Method: The GUTat 3.1 strain of the bloodstream form of T. brucei brucei parasites was used in this study. Parasites were cultured in vitro according to the conditions established previously ([36]). Parasites were used when they reached a confluent concentration of 1 × 10^6 parasites/ml. Estimation of parasitemia was done with the Neubauer counting chamber. Parasites were diluted to a concentration of 3 × 10^5 parasites/ml with HM1-9 medium and were used for the various experiments.
The alamarBlue assay (Life Technologies, USA) was carried out on treated or untreated trypanosome parasites to ascertain their viability. The assay was performed in a 96-well plate following the manufacturer's instructions with modification. Briefly, 1.5 × 10^4 parasites were seeded with varied concentrations of plant material (extracts, fractions, or compounds) ranging from 0.78 μg/ml to […]. Final concentrations of EtOH and dimethyl sulfoxide (DMSO) were kept at <1% and 0.1%, respectively. After incubation of parasites with or without plant extracts or compounds for 24 h at 37°C in 5% CO2, 10% alamarBlue dye was added, and the parasites were incubated another 24 h in darkness. After a total of 48 h, the plate was read for absorbance at 540 nm using the Tecan Sunrise Wako spectrophotometer. The trend curve was drawn to obtain a 50% inhibitory concentration (IC50) of each plant material (extracts, fractions, and compounds).

| SMILES | IC50 [µM] |
| --- | --- |
| CC1(C)CC[C@]2(C(=O)O)CC[C@]3(C)C(=CC[C@@H]4[C@@]5(C)CC[C@H](O)C(C)(C)[C@@H]5CC[C@]43C)[C@@H]2C1 [oleanolic acid] | 13.7 |
| COc1c2cc(C=O)ccc2c(OC)c2c(O)cccc12 [oruwalol] | 518 |
| C[C@H]1[C@H](C)CC[C@]2(C(=O)O)CC[C@]3(C)C(=CC[C@@H]4[C@@]5(C)CC[C@H](O)C(C)(C)[C@@H]5CC[C@]43C)[C@H]12 [ursolic acid] | 15.4 |
